Data: PubChem BioAssay AID2060895 (Molecular Pharmacology Branch, DTP, NCI, 2025)
pIC50: −log10 of the molar value.

Test system: PDC 899932-113-R3-J6 complex spheroid viability
Test: Anticancer human tumor 899932-113-R3-J6-PDC patient-derived melanoma cell line growth inhibition [RAS]
Details: for pIC50: curve of first compound; for viability, T/C: stronger effect = lower value
Outline: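 Agents were tested in combination matrices in half-log decrements from a top concentration at or near clinical Cmax (10 microM if undetermined). Targets were multi-cell spheroids of tumour lines plus HUVEC and MSC stromal cells.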

[1] = second compound 0.000949 µM, first compound 0.00316 µM
[2] = second compound 0.000949 µM, first compound 0.01 µM
[3] = second compound 0.000949 µM, first compound 0.0316 µM
[4] = second compound 0.000949 µM, first compound 0.1 µM
[5] = second compound 0.000949 µM, first compound 0.316 µM
[6] = second compound 0.000949 µM, first compound 1 µM
[7] = second compound 0.003 µM, first compound 0.00316 µM
[8] = second compound 0.003 µM, first compound 0.01 µM
[9] = second compound 0.003 µM, first compound 0.0316 µM
[10] = second compound 0.003 µM, first compound 0.1 µM
[11] = second compound 0.003 µM, first compound 0.316 µM
[12] = second compound 0.003 µM, first compound 1 µM
[13] = second compound 0.00949 µM, first compound 0.00316 µM
[14] = second compound 0.00949 µM, first compound 0.01 µM
[15] = second compound 0.00949 µM, first compound 0.0316 µM
[16] = second compound 0.00949 µM, first compound 0.1 µM
[17] = second compound 0.00949 µM, first compound 0.316 µM
[18] = second compound 0.00949 µM, first compound 1 µM
[19] = second compound 0.03 µM, first compound 0.00316 µM
[20] = second compound 0.03 µM, first compound 0.01 µM
[21] = second compound 0.03 µM, first compound 0.0316 µM
[22] = second compound 0.03 µM, first compound 0.1 µM
[23] = second compound 0.03 µM, first compound 0.316 µM
[24] = second compound 0.03 µM, first compound 1 µM
[25] = second compound 0.0949 µM, first compound 0.00316 µM
[26] = second compound 0.0949 µM, first compound 0.01 µM
[27] = second compound 0.0949 µM, first compound 0.0316 µM
[28] = second compound 0.0949 µM, first compound 0.1 µM
[29] = second compound 0.0949 µM, first compound 0.316 µM
[30] = second compound 0.0949 µM, first compound 1 µM
[31] = second compound 0.3 µM, first compound 0.00316 µM
[32] = second compound 0.3 µM, first compound 0.01 µM
[33] = second compound 0.3 µM, first compound 0.0316 µM
[34] = second compound 0.3 µM, first compound 0.1 µM
[35] = second compound 0.3 µM, first compound 0.316 µM
[36] = second compound 0.3 µM, first compound 1 µM
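Wherever viability, T/C is given: spheroids exposed to agents for seven days before readout; 100% = DMSO vehicle control wells.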

SMILES: C=CC(=O)N1CCN(c2nc(OCC3CCCN3C)nc3c(F)c(-c4nc(N)cc(C)c4C(F)(F)F)c(Cl)cc23)C(C)C1 (stereo not drawn) + CCn1c(-c2cc(N3CCN(C)CC3)cnc2C(C)OC)c2c3cc(ccc31)-c1csc(n1)CC(NC(=O)C1CC1C)C(=O)N1CCCC(N1)C(=O)OCC(C)(C)C2
- pIC50 (second compound 0.000949 µM): < 6.00
- pIC50 (second compound 0.003 µM): > 8.50
- pIC50 (second compound 0.00949 µM): > 8.50
- pIC50 (second compound 0.03 µM): > 8.50
- pIC50 (second compound 0.0949 µM): > 8.50
- pIC50 (second compound 0.3 µM): > 8.50
- viability, T/C [1]: 73.2%
- viability, T/C [2]: 71.3%
- viability, T/C [3]: 75.9%
- viability, T/C [4]: 76.8%
- viability, T/C [5]: 74%
- viability, T/C [6]: 78.2%
- viability, T/C [7]: 39.8%
- viability, T/C [8]: 35.6%
- viability, T/C [9]: 36.5%
- viability, T/C [10]: 37.7%
- viability, T/C [11]: 42.3%
- viability, T/C [12]: 34.5%
- viability, T/C [13]: 3.88%
- viability, T/C [14]: 4.28%
- viability, T/C [15]: 6.59%
- viability, T/C [16]: 5.83%
- viability, T/C [17]: 4.76%
- viability, T/C [18]: 5.5%
- viability, T/C [19]: 2.75%
- viability, T/C [20]: 2.91%
- viability, T/C [21]: 4.47%
- viability, T/C [22]: 2.82%
- viability, T/C [23]: 2.96%
- viability, T/C [24]: 2.4%
- viability, T/C [25]: 2.13%
- viability, T/C [26]: 2.76%
- viability, T/C [27]: 2.86%
- viability, T/C [28]: 1.94%
- viability, T/C [29]: 2.58%
- viability, T/C [30]: 2.69%
- viability, T/C [31]: 2.09%
- viability, T/C [32]: 2.1%
- viability, T/C [33]: 3.32%
- viability, T/C [34]: 3.11%
- viability, T/C [35]: 2.88%
- viability, T/C [36]: 2.36%

SMILES: CC1(C)CCC(Nc2ncc(C(F)(F)F)c(-c3c[nH]c4c(P(C)(C)=O)c(C#N)ccc34)n2)CN1 (stereo not drawn) + CCn1c(-c2cc(N3CCN(C)CC3)cnc2C(C)OC)c2c3cc(ccc31)-c1csc(n1)CC(NC(=O)C1CC1C)C(=O)N1CCCC(N1)C(=O)OCC(C)(C)C2
- pIC50 (second compound 0.000949 µM): 8.48
- pIC50 (second compound 0.003 µM): > 9.02
- pIC50 (second compound 0.00949 µM): > 9.02
- pIC50 (second compound 0.03 µM): > 9.02
- pIC50 (second compound 0.0949 µM): > 9.02
- pIC50 (second compound 0.3 µM): > 9.02
- viability, T/C (second compound 0.000949 µM, first compound 0.000949 µM): 64.6%
- viability, T/C (second compound 0.000949 µM, first compound 0.003 µM): 51.2%
- viability, T/C (second compound 0.000949 µM, first compound 0.00949 µM): 37.5%
- viability, T/C (second compound 0.000949 µM, first compound 0.03 µM): 26.1%
- viability, T/C (second compound 0.000949 µM, first compound 0.0949 µM): 15.4%
- viability, T/C (second compound 0.000949 µM, first compound 0.3 µM): 9.12%
- viability, T/C (second compound 0.003 µM, first compound 0.000949 µM): 35%
- viability, T/C (second compound 0.003 µM, first compound 0.003 µM): 27.6%
- viability, T/C (second compound 0.003 µM, first compound 0.00949 µM): 21.9%
- viability, T/C (second compound 0.003 µM, first compound 0.03 µM): 14.6%
- viability, T/C (second compound 0.003 µM, first compound 0.0949 µM): 13.2%
- viability, T/C (second compound 0.003 µM, first compound 0.3 µM): 7.92%
- viability, T/C (second compound 0.00949 µM, first compound 0.000949 µM): 3.56%
- viability, T/C (second compound 0.00949 µM, first compound 0.003 µM): 4.08%
- viability, T/C (second compound 0.00949 µM, first compound 0.00949 µM): 4.01%
- viability, T/C (second compound 0.00949 µM, first compound 0.03 µM): 4.17%
- viability, T/C (second compound 0.00949 µM, first compound 0.0949 µM): 5.08%
- viability, T/C (second compound 0.00949 µM, first compound 0.3 µM): 5.25%
- viability, T/C (second compound 0.03 µM, first compound 0.000949 µM): 2.41%
- viability, T/C (second compound 0.03 µM, first compound 0.003 µM): 2.78%
- viability, T/C (second compound 0.03 µM, first compound 0.00949 µM): 2.34%
- viability, T/C (second compound 0.03 µM, first compound 0.03 µM): 2.28%
- viability, T/C (second compound 0.03 µM, first compound 0.0949 µM): 2.45%
- viability, T/C (second compound 0.03 µM, first compound 0.3 µM): 2.64%
- viability, T/C (second compound 0.0949 µM, first compound 0.000949 µM): 2.17%
- viability, T/C (second compound 0.0949 µM, first compound 0.003 µM): 2.21%
- viability, T/C (second compound 0.0949 µM, first compound 0.00949 µM): 2.67%
- viability, T/C (second compound 0.0949 µM, first compound 0.03 µM): 2.13%
- viability, T/C (second compound 0.0949 µM, first compound 0.0949 µM): 1.61%
- viability, T/C (second compound 0.0949 µM, first compound 0.3 µM): 2.1%
- viability, T/C (second compound 0.3 µM, first compound 0.000949 µM): 2.15%
- viability, T/C (second compound 0.3 µM, first compound 0.003 µM): 1.93%
- viability, T/C (second compound 0.3 µM, first compound 0.00949 µM): 1.68%
- viability, T/C (second compound 0.3 µM, first compound 0.03 µM): 1.68%
- viability, T/C (second compound 0.3 µM, first compound 0.0949 µM): 1.86%
- viability, T/C (second compound 0.3 µM, first compound 0.3 µM): 1.52%

SMILES: C=CC(=O)Nc1cc(Nc2nccc(-c3cn(C)c4ccccc34)n2)c(OC)cc1N(C)CCN(C)C + CCn1c(-c2cccnc2C(C)OC)c2c3cc(ccc31)N1CCOC(CC(NC(=O)C(C(C)C)N(C)C(=O)C3(F)CCN(C(=O)C#CC(C)(C)N(C)C)CC3)C(=O)N3CCCC(N3)C(=O)OCC(C)(C)C2)C1
- pIC50 (second compound 0.000949 µM): < 6.00
- pIC50 (second compound 0.003 µM): < 6.00
- pIC50 (second compound 0.00949 µM): < 6.00
- pIC50 (second compound 0.03 µM): < 6.00
- pIC50 (second compound 0.0949 µM): < 6.00
- pIC50 (second compound 0.3 µM): < 6.00
- viability, T/C [1]: 113%
- viability, T/C [2]: 98.3%
- viability, T/C [3]: 101%
- viability, T/C [4]: 106%
- viability, T/C [5]: 115%
- viability, T/C [6]: 102%
- viability, T/C [7]: 104%
- viability, T/C [8]: 116%
- viability, T/C [9]: 107%
- viability, T/C [10]: 104%
- viability, T/C [11]: 112%
- viability, T/C [12]: 99.5%
- viability, T/C [13]: 108%
- viability, T/C [14]: 102%
- viability, T/C [15]: 108%
- viability, T/C [16]: 101%
- viability, T/C [17]: 110%
- viability, T/C [18]: 95.1%
- viability, T/C [19]: 104%
- viability, T/C [20]: 102%
- viability, T/C [21]: 101%
- viability, T/C [22]: 112%
- viability, T/C [23]: 112%
- viability, T/C [24]: 100%
- viability, T/C [25]: 102%
- viability, T/C [26]: 99.1%
- viability, T/C [27]: 103%
- viability, T/C [28]: 105%
- viability, T/C [29]: 104%
- viability, T/C [30]: 89.8%
- viability, T/C [31]: 96.5%
- viability, T/C [32]: 85.5%
- viability, T/C [33]: 96%
- viability, T/C [34]: 92.3%
- viability, T/C [35]: 90.9%
- viability, T/C [36]: 85.8%

SMILES: O=C(c1ccc(F)c(F)c1Nc1ccc(I)cc1F)N1CC(O)([C@@H]2CCCCN2)C1 + CCn1c(-c2cccnc2C(C)OC)c2c3cc(ccc31)N1CCOC(CC(NC(=O)C(C(C)C)N(C)C(=O)C3(F)CCN(C(=O)C#CC(C)(C)N(C)C)CC3)C(=O)N3CCCC(N3)C(=O)OCC(C)(C)C2)C1
- pIC50 (second compound 0.000949 µM): 8.09
- pIC50 (second compound 0.003 µM): 8.12
- pIC50 (second compound 0.00949 µM): 8.08
- pIC50 (second compound 0.03 µM): 8.17
- pIC50 (second compound 0.0949 µM): 8.16
- pIC50 (second compound 0.3 µM): 8.33
- viability, T/C [1]: 72.5%
- viability, T/C [2]: 45.1%
- viability, T/C [3]: 4.63%
- viability, T/C [4]: 3.49%
- viability, T/C [5]: 1.64%
- viability, T/C [6]: 0.82%
- viability, T/C [7]: 72.3%
- viability, T/C [8]: 43.3%
- viability, T/C [9]: 4.76%
- viability, T/C [10]: 3.09%
- viability, T/C [11]: 1.48%
- viability, T/C [12]: 0.53%
- viability, T/C [13]: 72.4%
- viability, T/C [14]: 45.5%
- viability, T/C [15]: 5.4%
- viability, T/C [16]: 3.03%
- viability, T/C [17]: 1.85%
- viability, T/C [18]: 0.35%
- viability, T/C [19]: 71.6%
- viability, T/C [20]: 38.9%
- viability, T/C [21]: 5.26%
- viability, T/C [22]: 3.43%
- viability, T/C [23]: 1.55%
- viability, T/C [24]: 0.48%
- viability, T/C [25]: 73%
- viability, T/C [26]: 38.8%
- viability, T/C [27]: 4.74%
- viability, T/C [28]: 2.54%
- viability, T/C [29]: 1.48%
- viability, T/C [30]: 0.61%
- viability, T/C [31]: 60.2%
- viability, T/C [32]: 29.6%
- viability, T/C [33]: 3.92%
- viability, T/C [34]: 2.9%
- viability, T/C [35]: 0.95%
- viability, T/C [36]: 0.52%
